Data set [1] in a line: Intrinsic clearance in pooled rat liver microsomes. In kind it is in vitro ADME. Conditions: pH 7.4. Here is the method:
Assays were performed in presence of 0.5 mg/ml of microsomal protein, with a NADPH-generating system (1 mM NADP, 2.5 mM glucose 6-phosphate and 2 U/ml glucose 6-phosphate dehydrogenase) in 100 mM potassium phosphate buffer containing 3.3 mM MgCl2 (pH 7.4). Tested compounds were stored in 10 mM DMSO solution and incubated at 1 μM final concentration (final DMSO concentration in incubation less than 0.1%). Microsomes and substrates were preincubated at 37° C. for 5 min and then the enzymatic reactions were initiated by the addition of cofactors and incubated at 37° C. for up to 90 min. Incubations were terminated by the addition of an equivalent volume of cold acetonitrile containing I.S. Control incubations, where the substrate was incubated in the same buffer system containing pRLM without the NADPH-generating system, were also run.
A general note: Microsomes from liver hold many membrane-bound enzymes, among them those of drug oxidation.

Data set [2] can be described thus: Mouse in vivo pharmacokinetics, oral dose. The following applies: plasma. Here is the method: Compounds of the invention were evaluated in in vitro and in vivo pharmacokinetic studies.
Data set [3] relates to erythroid precursor cells (ErPC) from β-thalassemia patients. Nature of the data set: Fetal hemoglobin production in erythroid precursor cells from β-thalassemia patients (HPLC). In kind it is cell-based, human. An excerpt:
Stimulation of the production of mRNA for γ-globin in human erythroid precursors isolated from peripheral blood was detected by using the technique by Fibach (Fibach, E. Hemoglobin, 1998, 22, 445-458; Blood, 1993, 81, 1630-1635). Blood samples were obtained from subjects after written informed consent and the local ethical commette approved the study. This technique provides for two stages: in the first stage, the cells isolated from peripheral blood of an healthy subject or a subject suffering from a hemopoietic pathology, such as sickle cell anaemia or beta-thalassemia, are sown in a culture medium to which 10% of conditioned medium derived from the vescicle carcinoma cell line 5637 has been added. The second stage consists in cultivating the isolated cells in a suitable culture medium, supplemented with erythropoiethin. In short, mononuclear cells were isolated from peripheral blood samples of normal donors and patients by Ficoll-Hypaque density gradient centrifugation and seeded in alpha-minimal essential medium (Sigma-Aldrich) supplemented with 10% FBS (Analitica de Mori), 1 μg/mL cyclosporin A (Sigma-Aldrich), and 10% conditioned medium from the 5637 bladder carcinoma cell line and 10 ng/ml stem cell factor (PeproTech EC Ltd, London, England). After 7-day incubation in this phase I culture, the non-adherent cells were harvested, washed, and recultured in fresh medium composed of α-medium, 30% FBS, 1% de-ionized bovine serum albumin (Sigma-Aldrich), 10^−5 M β-mercaptoethanol, 2 mM L-glutamine, 10^−6 M dexamethasone, 1 U/ml human recombinant erythropoietin (Tebu-bio, Magenta, MI, Italy) and 10 ng/ml stem cell factor. This part of the culture is referred to as phase II. Compounds were added on day 4-5 of phase II and cells were harvested on day 12. All cultures were incubated at 37° C., under an atmosphere of 5% CO2 in air, with extra humidity. The expression of the genes encoding for γ-globin was evaluated by quantitative RT-PCR. The production of HbF was analyzed by HPLC. […]

A short description of data set [4]: Rat PK studies, oral dose. The following applies: male, Sprague-Dawley, plasma, po 10 mg/kg. In kind it is in vivo, Sprague-Dawley rats. Here is the method:
Rats Male Sprague-Dawley rats (250-350 g) were used for the absorption disposition studies. In each rat an indwelling cannula was implanted in the right jugular vein for blood sampling. The surgery was performed under light anaesthesia (Ketamine-Xilazine (85 mg/kg and 2.5 mg/kg respectively i.m.) one day prior the experiment). During the kinetic study, all animals were housed individually in plastic metabolism cages, and were unrestrained throughout the experiment. Compounds (6 mg/mL) were dissolved in 20% DMSO/60% PEG400/20% water for intravenous administration, and dissolved or suspended in 1% methylcellulose for oral administration (2 mg/ml). After an overnight fast, the rats received an i.v. (via caudal vein) or an oral dose of the compound. Blood samples were collected at different times point after dosing. Plasma was separated immediately after blood sampling by centrifugation, and the plasma samples were kept frozen (−20° C.) until assayed by LC/MS/MS.
Analytical procedures: Plasma samples were extracted using Liquid Handling Robot MultiProbe Packard by protein precipitation with acetonitrile. Then the samples were centrifuged (3000 rpm×15 min at 4° C.) and the supernatant transferred and dried under nitrogen. The samples were reconstituted in water/acetonitrile 90/10 and then injected directly into an HPLC column. Sample analyses were performed using a an API 3000 or/and API 2000 or/and API 4000 Mass Spectrometer interfaced via the Turbo Ion Spray (ESI)/APCI to an LC system consisting of an HTS PAL CTC autosampler and an Agilen HP 1100 Binary Pump. The results are calculated using Analyst Software linear regression with 1/x*x weighting. The Assay Precision was calculated for the Quality Controls by Watson Lims database.
Pharmacokinetic Analysis: The plasma clearance (CLp) of the compounds were calculated (using Watson PK program) as the dose divided by the area under the plasma concentration-time curve from time zero to infinity (AUC0-∞). The apparent half-life was estimated from the slope of the terminal phase of the log plasma concentration-time data. The volume of distribution (Vdss) was determined using the following noncompartmental method: Vdss=(Dose IV×AUMC)/(AUC0-∞)2
where AUMC is the total area under the first moment of the drug concentration time curve from time zero to infinity. Bioavailability was estimated as the AUC0-∞ ratio following oral and intravenous administration, normalized for differences in dose.

“And” between values parts separate entries of the source, which are not always exact repeats. Equal values may be shown once.

Turning to `CCC(=O)CCCCC[C@H](NC(=O)C1CN(C)C1)c1ncc(-c2cc3ccccc3n(C)c2=O)o1` [Compound 92, (S)-1-methyl-N-(1-(5-(1-methyl-2-oxo-1,2-dihydroquinolin-3-yl)oxazol-2-yl)-7-oxononyl)azetidine-3-carboxamide], the microsomal CLint (commonly the capacity of the preparation to metabolise the compound, expressed as a volume cleared per time) at 1 μM in data set [1] amounted to 15 µL/min/mg. Besides, in data set [2] (po 10 mg/kg), the AUC – broadly, the area under the concentration-time curve, a measure of exposure – was found to be 0.32 µM·h and the peak level (Cmax) was 100 nM.
Consider `CCC(=O)CCCCC[C@H](NC(=O)C1CN(C)C1)c1ncc(-c2cc3ccccc3nc2OC)o1` [Compound 2, (S)-N-(1-(5-(2-methoxyquinolin-3-yl)oxazol-2-yl)-7-oxononyl)-1-methylazetidine-3-carboxamide], for which the “% of fetal hemoglobin production” value in data set [3] (ErPC from β-thalassemia patients 1-3 (one line per patient), 100 nM) is 78.6% and 85.5% and 81.5%. Also, in data set [3] (ErPC from β-thalassemic patients, 100 nM, in words), the “proportion of HbF in lysates (cation-exchange HPLC, FIG. 1)” value is given as “Increase in the proportion of HbF is detectable”. In addition, the “induction of HbF in erythroid precursor cells (ErPC)” value in data set [3] (ErPC from β-thalassemic patients, in words) is given as “strong inducer of HbF”. Moreover, the microsomal CLint at 1 μM in data set [1] came out at 33 µL/min/mg. In data set [2] (po 20 mg/kg), the AUC came to 22.4 µM·h and the highest level (Cmax) was 1870 nM. In data set [4], the AUC came out at 40 µM·h and the highest level (Cmax) was 2790 nM.

(Values after patent US9371295B2, “Compounds for use in the treatment of disorders that are ameliorated by inhibition of HDAC” (IRBM—Science Park S.p.A., priority 2012, dated 2016).)
